# Results from patent US7417124B2, “Antibodies specific for phosphorylation sites and screening methods using the same antibodies” (Zeria Pharmaceutical Co., Ltd., priority 2003, dated 2008).
# Tested on: phosphorylation in the linker regions of Smad proteins
# Test: Smad linker region phosphorylation in TGF-β-treated myofibroblasts, immunoprecipitation and immunoblotting with phosphorylation-specific antibodies
# Type: cell-based
# Conditions: myofibroblasts from rat liver, compounds 30 minutes before 200 pM TGF-β, FIG. 3
# Procedure: The phosphorylation of Smad2 and Smad3 was examined by western blotting using antibodies against Smad2 and Smad3 which were site-specifically phosphorylated after the immunoprecipitation with anti-Smad2 antibody and anti-Smad3 antibody.
# Myofibroblasts (MFB 2×10^6 cells/100 mm dish) from rat liver were cultured in DMEM medium (containing 5% fetal bovine serum) for several days and further cultured with 200 pM TGF-β (R&D Systems) for 30 minutes under the serum-free conditions. The cells were homogenized with RIPA buffer (10 mM Tris-HCl, pH 7.8/1% NP40/0.15M NaCl/1 mM EDTA/10 μg/ml aprotinin), and the resultant lysate was centrifuged at 15,000×g. The supernatant was incubated with Smad-specific antibodies and protein G-sepharose (Amersham Bioscience) to obtain immunoprecipitate. After the incubation, part of the precipitate was subjected to SDS-polyacrylamide gel electrophoresis, the obtained gel was transferred onto a PVDF membrane, and immunoblotting was performed using the antibodies specific for phosphorylation of the linker regions and C-terminal regions in Smad2 and Smad3. The detection was carried out by a chemiluminescence technique using HRP-labeled secondary antibody/anti-IgG, IgH antibody (Amersham Bioscience). […] The detected bands were quantified using an imaging analyzer.
compound,measurement,value
C[S+]([O-])c1ccc(-c2nc(-c3ccncc3)c(-c3ccc(F)cc3)[nH]2)cc1 (stereo not shown) [SB203580],phosphorylation in the linker regions of Smad proteins,inhibited
